Values after ≈ are worked out from the molar mass of the structure shown.
Assays:
Type in all cases: functional
Pichia kudriavzevii = assay: Antifungal activity against Candida krusei GIM 2.1 assessed as inhibition of fungal growth by CLSI M27-A3 guidelines based method
Candida tropicalis = assay: Antifungal activity against Candida tropicalis GIM 2.183 assessed as inhibition of fungal growth by CLSI M27-A3 guidelines based method
Nakaseomyces glabratus = assay: Antifungal activity against Candida glabrata assessed as inhibition of fungal growth by CLSI M27-A3 guidelines based method
Candida albicans [1] = assay: Antifungal activity against Candida albicans SC5314 assessed as inhibition of fungal growth by CLSI M27-A3 guidelines based method
Candida albicans [2] = assay: Antifungal activity against Candida albicans GIM 2.194 assessed as inhibition of fungal growth by CLSI M27-A3 guidelines based method
Candida parapsilosis = assay: Antifungal activity against Candida parapsilosis GIM 2.190 assessed as inhibition of fungal growth by CLSI M27-A3 guidelines based method; conditions: Lodderomyces parapsilosis
Cryptococcus neoformans = assay: Antifungal activity against Cryptococcus neoformans CGMCC 2.3161 assessed as inhibition of fungal growth by CLSI M27-A3 guidelines based method

Row | SMILES | MIC80 (Pichia kudriavzevii) [µg/mL] | MIC80 (Candida tropicalis) [µg/mL] | MIC80 (Nakaseomyces glabratus) [µg/mL] | MIC80 (Candida albicans [1]) [µg/mL] | MIC80 (Candida albicans [2]) [µg/mL] | MIC80 (Candida parapsilosis) [µg/mL] | MIC80 (Cryptococcus neoformans) [µg/mL]
1 | CN1CCN(c2ccc(CN(C)CC(O)(Cn3cncn3)c3ccc(F)cc3F)cc2)CC1 (stereo not given) | > 32 | 4 (≈ 8.76 µM) | > 32 | 8 (≈ 17.5 µM) | 8 (≈ 17.5 µM) | 8 (≈ 17.5 µM) | > 32
2 | CN(Cc1ccc(N2CCN(Cc3cc(Cl)ccc3Br)CC2)cc1)CC(O)(Cn1cncn1)c1ccc(F)cc1F (stereo not given) | 0.2 (≈ 0.31 µM) | 0.006 (≈ 0.00929 µM) | 0.2 (≈ 0.31 µM) | 0.013 (≈ 0.0201 µM) | 0.013 (≈ 0.0201 µM) | 0.006 (≈ 0.00929 µM) | 0.1 (≈ 0.155 µM)
3 | COc1ccc(CN2CCN(c3ccc(CN(C)CC(O)(Cn4cncn4)c4ccc(F)cc4F)cc3)CC2)cc1 (stereo not given) | 0.8 (≈ 1.42 µM) | 0.2 (≈ 0.355 µM) | 3.2 (≈ 5.69 µM) | 0.5 (≈ 0.889 µM) | 0.1 (≈ 0.178 µM) | 0.1 (≈ 0.178 µM) | 0.8 (≈ 1.42 µM)
4 | CN(Cc1ccc(N2CCN(Cc3c(Cl)cccc3Br)CC2)cc1)CC(O)(Cn1cncn1)c1ccc(F)cc1F (stereo not given) | 0.1 (≈ 0.155 µM) | 0.006 (≈ 0.00929 µM) | 0.2 (≈ 0.31 µM) | 0.013 (≈ 0.0201 µM) | 0.025 (≈ 0.0387 µM) | 0.006 (≈ 0.00929 µM) | 
5 | CC(C)N1CCN(c2ccc(CN(C)CC(O)(Cn3cncn3)c3ccc(F)cc3F)cc2)CC1 (stereo not given) | > 32 | 2 (≈ 4.13 µM) | > 32 | 4 (≈ 8.25 µM) | 8 (≈ 16.5 µM) | 4 (≈ 8.25 µM) | > 32
6 | CN(Cc1ccc(N2CCN(Cc3ccc(N)cc3)CC2)cc1)CC(O)(Cn1cncn1)c1ccc(F)cc1F (stereo not given) | 3.2 (≈ 5.84 µM) | 1.6 (≈ 2.92 µM) | 3.2 (≈ 5.84 µM) | 1.6 (≈ 2.92 µM) | 3.2 (≈ 5.84 µM) | 3.2 (≈ 5.84 µM) | 3.2 (≈ 5.84 µM)
7 | CN(Cc1ccc(N2CCN(Cc3cc(Br)ccc3Br)CC2)cc1)CC(O)(Cn1cncn1)c1ccc(F)cc1F (stereo not given) | 0.1 (≈ 0.145 µM) | 0.006 (≈ 0.00869 µM) | 0.1 (≈ 0.145 µM) | 0.013 (≈ 0.0188 µM) | 0.025 (≈ 0.0362 µM) | 0.006 (≈ 0.00869 µM) | 
8 | CN(Cc1ccc(N2CCN(Cc3ccc(S(C)(=O)=O)cc3)CC2)cc1)CC(O)(Cn1cncn1)c1ccc(F)cc1F (stereo not given) | 3.2 (≈ 5.24 µM) | 0.4 (≈ 0.655 µM) | 3.2 (≈ 5.24 µM) | 0.4 (≈ 0.655 µM) | 0.8 (≈ 1.31 µM) | 0.8 (≈ 1.31 µM) | 3.2 (≈ 5.24 µM)
9 | CN(Cc1ccc(N2CCN(Cc3c(F)cccc3Br)CC2)cc1)CC(O)(Cn1cncn1)c1ccc(F)cc1F (stereo not given) | 0.1 (≈ 0.159 µM) | 0.013 (≈ 0.0207 µM) | 0.2 (≈ 0.318 µM) | 0.013 (≈ 0.0207 µM) | 0.1 (≈ 0.159 µM) | 0.013 (≈ 0.0207 µM) | 0.1 (≈ 0.159 µM)
10 | CN(Cc1ccc(N2CCN(Cc3ccc([N+](=O)[O-])cc3)CC2)cc1)CC(O)(Cn1cncn1)c1ccc(F)cc1F (stereo not given) | 0.4 (≈ 0.692 µM) | 0.025 (≈ 0.0433 µM) | 1.6 (≈ 2.77 µM) | 0.025 (≈ 0.0433 µM) | 0.05 (≈ 0.0866 µM) | 0.025 (≈ 0.0433 µM) | 0.1 (≈ 0.173 µM)
11 | CN(Cc1ccc(N2CCN(Cc3ccccc3Cl)CC2)cc1)CC(O)(Cn1cncn1)c1ccc(F)cc1F (stereo not given) | 0.1 (≈ 0.176 µM) | 0.013 (≈ 0.0229 µM) | 0.2 (≈ 0.353 µM) | 0.025 (≈ 0.0441 µM) | 0.006 (≈ 0.0106 µM) | 0.006 (≈ 0.0106 µM) | 0.1 (≈ 0.176 µM)

More lines, now with the values ahead:

Row | MIC80 (Pichia kudriavzevii) [µg/mL] | MIC80 (Candida tropicalis) [µg/mL] | MIC80 (Nakaseomyces glabratus) [µg/mL] | MIC80 (Candida albicans [1]) [µg/mL] | MIC80 (Candida albicans [2]) [µg/mL] | MIC80 (Candida parapsilosis) [µg/mL] | MIC80 (Cryptococcus neoformans) [µg/mL] | SMILES
12 | 0.1 (≈ 0.176 µM) | 0.013 (≈ 0.0229 µM) | 0.2 (≈ 0.353 µM) | 0.025 (≈ 0.0441 µM) | 0.013 (≈ 0.0229 µM) | 0.006 (≈ 0.0106 µM) | 0.1 (≈ 0.176 µM) | CN(Cc1ccc(N2CCN(Cc3cccc(Cl)c3)CC2)cc1)CC(O)(Cn1cncn1)c1ccc(F)cc1F (stereo not given)
13 | 16 (≈ 33 µM) | 0.5 (≈ 1.03 µM) | 16 (≈ 33 µM) | 0.5 (≈ 1.03 µM) | 0.1 (≈ 0.206 µM) | 0.1 (≈ 0.206 µM) | 8 (≈ 16.5 µM) | CC(=O)N1CCN(c2ccc(CN(C)CC(O)(Cn3cncn3)c3ccc(F)cc3F)cc2)CC1 (stereo not given)
14 | 0.2 (≈ 0.304 µM) | 0.013 (≈ 0.0197 µM) | 0.4 (≈ 0.607 µM) | 0.25 (≈ 0.38 µM) | 0.025 (≈ 0.038 µM) | 0.025 (≈ 0.038 µM) |  | CN(Cc1ccc(N2CCN(Cc3cccc(I)c3)CC2)cc1)CC(O)(Cn1cncn1)c1ccc(F)cc1F (stereo not given)
15 | 0.2 (≈ 0.363 µM) | 0.1 (≈ 0.182 µM) | 0.8 (≈ 1.45 µM) | 0.1 (≈ 0.182 µM) | 0.05 (≈ 0.0908 µM) | 0.2 (≈ 0.363 µM) | 0.8 (≈ 1.45 µM) | CN(Cc1ccc(N2CCN(Cc3ccc(F)cc3)CC2)cc1)CC(O)(Cn1cncn1)c1ccc(F)cc1F (stereo not given)
16 | 0.2 (≈ 0.294 µM) | 0.025 (≈ 0.0368 µM) | 0.2 (≈ 0.294 µM) | 0.013 (≈ 0.0191 µM) | 0.025 (≈ 0.0368 µM) | 0.013 (≈ 0.0191 µM) | 0.2 (≈ 0.294 µM) | CN(Cc1ccc(N2CCN(Cc3ccc(C(F)(F)F)cc3Br)CC2)cc1)CC(O)(Cn1cncn1)c1ccc(F)cc1F (stereo not given)
17 | 0.1 (≈ 0.152 µM) | 0.013 (≈ 0.0197 µM) | 0.2 (≈ 0.304 µM) | 0.013 (≈ 0.0197 µM) | 0.013 (≈ 0.0197 µM) | 0.025 (≈ 0.038 µM) |  | CN(Cc1ccc(N2CCN(Cc3ccccc3I)CC2)cc1)CC(O)(Cn1cncn1)c1ccc(F)cc1F (stereo not given)

Reference: ChEMBL document CHEMBL6092162, “Identification of novel and potent triazoles targeting CYP51 for antifungal: Design, synthesis, and biological study” (Eur J Med Chem, 2024)
